From ChEMBL document CHEMBL6153102, “Rational Design, Synthesis, and Biological Evaluation of Novel c-Met Degraders for Lung Cancer Therapy” (J Med Chem, 2025)
Activity calls are given as the source filed them. The rule behind the calls is not given here.

Columns and labels:
EBC-1 [1] = assay: Induction of apoptosis in human EBC-1 cells assessed as upregulation of PARP level incubated for 24 hrs by Western blot analysis; format: functional, cell-based; settings: dose 5-50 nM
EBC-1 [2] = assay: Induction of apoptosis in human EBC-1 cells assessed as late apoptotic cells at 15 nM incubated for 24 hrs by Annexin V/FITC staining based flow cytometry analysis (reference value: 1.65 %); format: functional
[3] = biological target: T1, Protein cereblon/Hepatocyte growth factor receptor (Homo sapiens, UniProt P08581+Q96SW2); assay: PROTAC activity at c-Met/CRBN in human HCT-116 cells assessed as induction of c-Met degradation incubated for 24 hrs by Western blotting analysis; format: cell-based
Target sequence in this assay (P08581 whole entry): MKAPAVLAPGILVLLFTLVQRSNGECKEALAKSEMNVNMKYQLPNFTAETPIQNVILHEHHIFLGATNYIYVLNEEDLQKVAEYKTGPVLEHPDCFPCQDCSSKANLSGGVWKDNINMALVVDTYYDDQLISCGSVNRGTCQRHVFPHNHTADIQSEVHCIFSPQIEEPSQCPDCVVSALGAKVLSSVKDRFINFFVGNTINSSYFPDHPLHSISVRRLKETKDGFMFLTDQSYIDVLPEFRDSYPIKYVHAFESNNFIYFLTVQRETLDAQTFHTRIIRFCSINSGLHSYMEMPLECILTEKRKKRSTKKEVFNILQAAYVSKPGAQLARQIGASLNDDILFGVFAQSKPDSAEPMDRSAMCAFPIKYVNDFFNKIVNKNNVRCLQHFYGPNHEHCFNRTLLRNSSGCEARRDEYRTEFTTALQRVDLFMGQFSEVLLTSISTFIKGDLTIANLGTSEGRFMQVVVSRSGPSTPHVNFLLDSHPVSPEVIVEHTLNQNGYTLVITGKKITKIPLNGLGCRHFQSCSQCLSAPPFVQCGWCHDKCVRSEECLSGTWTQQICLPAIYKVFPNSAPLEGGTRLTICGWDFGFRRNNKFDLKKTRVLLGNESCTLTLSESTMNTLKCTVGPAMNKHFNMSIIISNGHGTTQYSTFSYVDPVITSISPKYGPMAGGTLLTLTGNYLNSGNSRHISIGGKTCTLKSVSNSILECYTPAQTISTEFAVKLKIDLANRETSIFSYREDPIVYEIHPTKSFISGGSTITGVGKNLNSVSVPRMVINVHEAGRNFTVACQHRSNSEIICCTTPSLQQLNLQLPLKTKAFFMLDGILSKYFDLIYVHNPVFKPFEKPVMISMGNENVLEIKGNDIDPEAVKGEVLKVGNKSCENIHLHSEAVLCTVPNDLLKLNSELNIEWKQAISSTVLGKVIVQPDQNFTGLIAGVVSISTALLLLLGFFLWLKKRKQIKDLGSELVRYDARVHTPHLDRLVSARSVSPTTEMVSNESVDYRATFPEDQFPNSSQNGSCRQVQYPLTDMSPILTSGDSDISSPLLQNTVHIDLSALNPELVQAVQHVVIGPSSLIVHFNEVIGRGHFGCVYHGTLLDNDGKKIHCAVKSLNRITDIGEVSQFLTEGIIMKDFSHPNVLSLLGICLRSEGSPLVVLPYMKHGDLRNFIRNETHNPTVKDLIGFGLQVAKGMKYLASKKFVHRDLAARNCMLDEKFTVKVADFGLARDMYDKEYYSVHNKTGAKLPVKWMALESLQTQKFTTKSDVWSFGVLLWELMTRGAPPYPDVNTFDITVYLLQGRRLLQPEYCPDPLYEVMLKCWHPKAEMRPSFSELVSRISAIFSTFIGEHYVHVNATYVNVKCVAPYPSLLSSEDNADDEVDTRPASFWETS
Target sequence in this assay (Q96SW2 whole entry): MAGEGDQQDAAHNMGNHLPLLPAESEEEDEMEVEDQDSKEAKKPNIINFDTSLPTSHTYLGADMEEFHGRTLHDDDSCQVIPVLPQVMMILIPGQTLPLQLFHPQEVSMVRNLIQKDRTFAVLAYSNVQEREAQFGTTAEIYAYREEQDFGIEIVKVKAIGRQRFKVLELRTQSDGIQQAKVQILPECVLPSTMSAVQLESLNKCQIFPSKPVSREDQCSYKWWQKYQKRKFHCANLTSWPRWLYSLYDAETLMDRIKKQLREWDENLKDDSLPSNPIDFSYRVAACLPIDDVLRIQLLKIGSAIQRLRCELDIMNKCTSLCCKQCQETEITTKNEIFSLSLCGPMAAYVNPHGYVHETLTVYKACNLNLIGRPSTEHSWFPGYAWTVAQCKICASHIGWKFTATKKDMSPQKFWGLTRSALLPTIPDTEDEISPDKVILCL

[4] = AUC (0 to t) in Sprague-Dawley rat at 2 mg/kg, iv measured upto 24 hrs by LC-MS/MS analysis; format: ADME, organism-based; settings: in vivo
[5] = biological target: T1, Protein cereblon/Hepatocyte growth factor receptor; assay: PROTAC activity at c-Met/CRBN in human EBC-1 cells assessed as effect on SALL4 level at 15.6 nM incubated for 24 hrs by proteomics analysis; format: cell-based
Target sequence in this assay (P08581 25-1390 limits assumed): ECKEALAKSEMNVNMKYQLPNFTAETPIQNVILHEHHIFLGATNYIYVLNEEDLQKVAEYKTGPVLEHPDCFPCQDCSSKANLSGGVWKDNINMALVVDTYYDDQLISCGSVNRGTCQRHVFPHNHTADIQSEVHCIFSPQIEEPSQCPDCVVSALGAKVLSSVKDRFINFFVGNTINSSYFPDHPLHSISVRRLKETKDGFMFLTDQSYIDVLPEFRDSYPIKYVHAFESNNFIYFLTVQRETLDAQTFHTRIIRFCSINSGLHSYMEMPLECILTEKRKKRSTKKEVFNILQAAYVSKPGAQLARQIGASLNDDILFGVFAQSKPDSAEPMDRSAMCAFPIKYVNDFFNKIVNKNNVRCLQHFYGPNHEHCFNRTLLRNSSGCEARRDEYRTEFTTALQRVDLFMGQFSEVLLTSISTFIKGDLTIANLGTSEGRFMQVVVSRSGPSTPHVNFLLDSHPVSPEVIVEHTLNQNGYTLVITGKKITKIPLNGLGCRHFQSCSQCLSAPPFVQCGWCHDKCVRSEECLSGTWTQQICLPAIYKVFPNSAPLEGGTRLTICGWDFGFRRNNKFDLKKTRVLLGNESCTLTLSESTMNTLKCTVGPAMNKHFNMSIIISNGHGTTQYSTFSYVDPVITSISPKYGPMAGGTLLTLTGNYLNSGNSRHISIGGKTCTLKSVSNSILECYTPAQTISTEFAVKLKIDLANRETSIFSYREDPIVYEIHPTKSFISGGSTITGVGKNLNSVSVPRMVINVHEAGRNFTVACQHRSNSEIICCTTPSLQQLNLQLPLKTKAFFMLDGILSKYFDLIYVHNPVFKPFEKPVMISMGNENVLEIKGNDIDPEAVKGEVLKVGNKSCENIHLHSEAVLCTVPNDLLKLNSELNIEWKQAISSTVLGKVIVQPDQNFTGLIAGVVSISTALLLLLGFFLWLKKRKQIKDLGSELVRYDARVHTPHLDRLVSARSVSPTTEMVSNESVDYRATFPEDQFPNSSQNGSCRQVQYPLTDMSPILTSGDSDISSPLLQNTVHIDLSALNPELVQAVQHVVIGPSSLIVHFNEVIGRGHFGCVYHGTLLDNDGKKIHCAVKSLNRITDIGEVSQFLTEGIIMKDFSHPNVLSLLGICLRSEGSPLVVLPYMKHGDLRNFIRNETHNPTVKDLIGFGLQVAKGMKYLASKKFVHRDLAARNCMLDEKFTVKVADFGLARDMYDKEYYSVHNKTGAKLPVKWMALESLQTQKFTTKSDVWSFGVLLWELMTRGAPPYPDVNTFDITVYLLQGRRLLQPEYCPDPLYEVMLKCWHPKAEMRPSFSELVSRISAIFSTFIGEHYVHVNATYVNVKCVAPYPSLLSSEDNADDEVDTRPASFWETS
Target sequence in this assay (Q96SW2 whole entry partner): as the sequence (Q96SW2 whole entry) above

[6] = biological target: T1, Protein cereblon/Hepatocyte growth factor receptor; assay: PROTAC activity at c-Met/CRBN in human EBC-1 cells assessed as reduction in c-Met level at 3.9 to 125 nM incubated for 24 hrs in presence of tepotinib by Western blot analysis; format: cell-based; settings: dose 3.9-125 nM
Target sequence in this assay (P08581 25-1390 limits assumed): as the sequence (P08581 25-1390 limits assumed) above
Target sequence in this assay (Q96SW2 whole entry partner): as the sequence (Q96SW2 whole entry) above

[7] = Half life in Sprague-Dawley rat at 5 mg/kg, ip measured upto 24 hrs by LC-MS/MS analysis; format: ADME, organism-based; settings: in vivo
[8] = Bioavailability in Sprague-Dawley rat at 5 mg/kg, ip measured upto 24 hrs by LC-MS/MS analysis; format: ADME, organism-based; settings: in vivo
[9] = biological target: T1, Protein cereblon/Hepatocyte growth factor receptor; assay: PROTAC activity at c-Met/CRBN in human EBC-1 cells assessed as induction of c-Met degradation incubated for 24 hrs by Western blotting analysis; format: cell-based
[10] = biological target: T1, Protein cereblon/Hepatocyte growth factor receptor; assay: PROTAC activity at c-Met/CRBN in human EBC-1 cells assessed as reduction in AKR1C3 level at 15.6 nM incubated for 24 hrs by proteomics analysis; format: cell-based
Target sequence in this assay (P08581 25-1390 limits assumed): as the sequence (P08581 25-1390 limits assumed) above
Target sequence in this assay (Q96SW2 whole entry partner): as the sequence (Q96SW2 whole entry) above

MKN-45 = assay: Antiproliferative activity against human MKN-45 cells assessed as cell viability incubated for 72 hrs by MTT assay; format: functional, cell-based; settings: MKN-45, 72 h
[11] = Stability in human whole blood assessed as half life; format: ADME, tissue-based
EBC-1 [12] = assay: Induction of apoptosis in human EBC-1 cells assessed as late apoptotic cells at 5 nM incubated for 24 hrs by Annexin V/FITC staining based flow cytometry analysis (reference value: 1.65 %); format: functional
EBC-1 [13] = assay: Induction of apoptosis in human EBC-1 cells assessed as early apoptotic cells at 50 nM incubated for 24 hrs by Annexin V/FITC staining based flow cytometry analysis (reference value: 2.11 %); format: functional
EBC-1 [14] = assay: Induction of apoptosis in human EBC-1 cells assessed as late apoptotic cells at 50 nM incubated for 24 hrs by Annexin V/FITC staining based flow cytometry analysis (reference value: 1.65 %); format: functional
[15] = Metabolic stability in rat liver microsome assessed as half life; format: ADME; settings: liver microsomes
[16] = Cmax in Sprague-Dawley rat at 2 mg/kg, iv measured upto 24 hrs by LC-MS/MS analysis; format: ADME, organism-based; settings: in vivo
EBC-1 [17] = assay: PROTAC activity at c-Met Y1230C mutant /CRBN in human EBC-1 cells assessed as induction of c-Met degradation up to 1000 nM incubated for 24 hrs by Western blotting analysis; format: cell-based
[18] = biological target: T1, Protein cereblon/Hepatocyte growth factor receptor; assay: PROTAC activity at c-Met/CRBN in human A549 cells assessed as induction of c-Met degradation at 100 nM incubated for 24 hrs by Western blotting analysis relative to control; format: cell-based
Target sequence in this assay (P08581 25-1390 limits assumed): as the sequence (P08581 25-1390 limits assumed) above
Target sequence in this assay (Q96SW2 whole entry partner): as the sequence (Q96SW2 whole entry) above

[19] = biological target: T1, Protein cereblon/Hepatocyte growth factor receptor; assay: PROTAC activity at c-Met/CRBN in human A549 cells assessed as induction of c-Met degradation incubated for 24 hrs by Western blotting analysis; format: cell-based
Target sequence in this assay (P08581 whole entry): as the sequence (P08581 whole entry) above
Target sequence in this assay (Q96SW2 whole entry): as the sequence (Q96SW2 whole entry) above

A549 = assay: Antiproliferative activity against human A549 cells assessed as cell viability incubated for 72 hrs by MTT assay; format: functional, cell-based; settings: A549, 72 h
[20] = biological target: T1, Protein cereblon/Hepatocyte growth factor receptor; assay: PROTAC activity at c-Met/CRBN in human EBC-1 cells assessed as reduction in AKR1C2 level at 15.6 nM incubated for 24 hrs by proteomics analysis; format: cell-based
Target sequence in this assay (P08581 25-1390 limits assumed): as the sequence (P08581 25-1390 limits assumed) above
Target sequence in this assay (Q96SW2 whole entry partner): as the sequence (Q96SW2 whole entry) above

EBC-1 [21] = assay: Induction of apoptosis in human EBC-1 cells assessed as upregulation of cleaved caspase-3 level incubated for 24 hrs by Western blot analysis; format: functional, cell-based; settings: dose 5-50 nM
[22] = AUC (0 to t) in Sprague-Dawley rat at 5 mg/kg, ip measured upto 24 hrs by LC-MS/MS analysis; format: ADME, organism-based; settings: in vivo
[23] = Metabolic stability in human liver microsome assessed as clearance; format: ADME; settings: liver microsomes, read-out: CLH
[24] = biological target: T1, Protein cereblon/Hepatocyte growth factor receptor; assay: PROTAC activity at c-Met/CRBN in human EBC-1 cells assessed as reduction in TXNDC9 level at 15.6 nM incubated for 24 hrs by proteomics analysis; format: cell-based
Target sequence in this assay (P08581 25-1390 limits assumed): as the sequence (P08581 25-1390 limits assumed) above
Target sequence in this assay (Q96SW2 whole entry partner): as the sequence (Q96SW2 whole entry) above

[25] = biological target: T1, Protein cereblon/Hepatocyte growth factor receptor; assay: PROTAC activity at c-Met/CRBN in human EBC-1 cells assessed as reduction in c-Met mRNA level at 3.9 to 125 nM incubated for 24 hrs by qPCR analysis; format: cell-based; settings: dose 3.9-125 nM
[26] = biological target: T1, Protein cereblon/Hepatocyte growth factor receptor; assay: PROTAC activity at c-Met/CRBN in human EBC-1 cells assessed as reduction in c-Met level at 3.9 to 125 nM incubated for 24 hrs in presence of MG132 by Western blot analysis; format: cell-based; settings: dose 3.9-125 nM
[27] = biological target: T1, Protein cereblon/Hepatocyte growth factor receptor; assay: PROTAC activity at c-Met/CRBN in human EBC-1 cells assessed as induction of c-Met degradation at 100 nM incubated for 24 hrs by Western blotting analysis relative to control; format: cell-based
[28] = MRT (0 to t) in Sprague-Dawley rat at 2 mg/kg, iv measured upto 24 hrs by LC-MS/MS analysis; format: ADME, organism-based; settings: in vivo
[29] = Toxicity in BALB/c nude mouse assessed as kidney damage at 10 to 20 mg/kg, ip administered for 7 days by H and E staining based analysis; format: organism-based; settings: in vivo, 168 h, dose 10-20 mg/kg, time 7 day
[30] = biological target: T1, Protein cereblon/Hepatocyte growth factor receptor; assay: PROTAC activity at c-Met/CRBN in human HCT-116 cells assessed as induction of c-Met degradation at 15.6 nM by Western blotting analysis; format: cell-based; settings: time 72.0 hrs
[31] = Stability in human plasma assessed as half life; format: ADME, cell-free
[32] = biological target: T1, Protein cereblon/Hepatocyte growth factor receptor; assay: PROTAC activity at c-Met/CRBN in human A549 cells assessed as reduction in c-Met level at 3.9 to 125 nM incubated for 24 hrs in presence of tepotinib by Western blot analysis; format: cell-based; settings: dose 3.9-125 nM
EBC-1 [33] = assay: Induction of apoptosis in human EBC-1 cells assessed as necrotic cells at 50 nM incubated for 24 hrs by Annexin V/FITC staining based flow cytometry analysis (reference value: 0.35 %); format: functional
[34] = biological target: T1, Protein cereblon/Hepatocyte growth factor receptor; assay: PROTAC activity at c-Met/CRBN in human A549 cells assessed as induction of c-Met degradation at 15.6 nM by Western blotting analysis; format: cell-based; settings: time 72.0 hrs
[35] = biological target: T1, Protein cereblon/Hepatocyte growth factor receptor; assay: PROTAC activity at c-Met/CRBN in human EBC-1 cells assessed as reduction in c-Met level at 3.9 to 125 nM incubated for 24 hrs in presence of lenalidomide by Western blot analysis; format: cell-based; settings: dose 3.9-125 nM

COc1ccc(C(=O)N2CCC3(CCN(C(=O)CN4CCC(COc5cnc(-c6cccc(Cn7nc(-c8cccc(C#N)c8)ccc7=O)c6)nc5)CC4)CC3)CC2)cc1N1CCC(=O)NC1=O
Activity (EBC-1 [1]): Dose-dependent-effect | Activity (EBC-1 [2]): 3.66% | DC50 [3]: < 15.6 nM | AUCt [4]: 532 ng·h/mL | Activity [5]: No effect | Activity [6]: inactive | half-life [7]: 5.49 h | bioavailability [8]: 49.2% | DC50 [9]: 0.59 nM | Activity ([9]; dose 0.03 nM): Dose-dependent-effect | Activity [10]: Active | IC50 (MKN-45): 10 nM | half-life [11]: > 2 h | Activity (EBC-1 [12]): 3.43% | Activity (EBC-1 [13]): 33.9% | Activity (EBC-1 [14]): 3.47% | half-life [15]: 2.22 h | Cmax [16]: 2380 ng/mL | Activity (EBC-1 [17]): Active | Activity [18]: inactive | DC50 [19]: < 15.6 nM | IC50 (A549): 16000 nM | Activity [20]: Active | Activity (EBC-1 [21]): Dose-dependent-effect | AUCt [22]: 655 ng·h/mL | CLint scaled [23]: 57.6 mL/min/kg | Activity [24]: Active | Activity [25]: Active | Activity [26]: Active | Activity [27]: 90.3% | MRT last at 24 h [28]: 2.49 h | Activity [29]: Non-toxic | Activity [30]: Time-dependent-effect | half-life [31]: > 2 h | Activity [32]: inactive | Activity (EBC-1 [33]): 0.6% | Activity [34]: Time-dependent-effect | Activity [35]: Active
